According to article PMC5668067, “Phase I dose-escalation study of the c-Met tyrosine kinase inhibitor SAR125844 in Asian patients with advanced solid tumors, including patients with MET-amplified gastric cancer” (Oncotarget, 2017):
Where two headings read alike, the source gives them in different places.

Assays:
[1] = phase I pharmacokinetics in blood (dried blood spot, LC-MS/MS, noncompartmental analysis); assay type: in vivo, human; conditions: for Cmax: blood; for AUC(0-t): read-out: AUC0–168
Protocol: Blood samples for pharmacokinetic analysis were acquired using dried blood-spot technology on days 1 and 22 of cycle 1 at several time points before, during, and after infusion (up to 168 hours after administration). Drug concentrations were determined by a validated method of liquid chromatography and tandem mass spectrometry (limit of quantification 2 ng/mL). Pharmacokinetic parameters were calculated using a noncompartmental analysis and included the maximum observed blood concentration (Cmax), AUC from 0 to infinity, AUC0–168, CL, CL after repeated administrations (CLss), volume of distribution at steady state (Vss), and the half-life associated with the terminal slope (t1/2z).

[2] = tested on: solid tumors, including MET-amplified gastric cancer; test: phase I antitumor activity (RECIST 1.1); assay type: in vivo, human
Protocol: Tumor response was evaluated by the Response Evaluation Criteria In Solid Tumors version 1.1, which define complete response as disappearance of all target lesions, partial response and progressive disease as a minimally 30% decrease or 20% increase, respectively, in the sum of diameters of target lesions, and stable disease as neither sufficient shrinkage to qualify for partial response nor sufficient increase to qualify for progressive disease. Tumor burden was assessed from computerized tomography or magnetic resonance imaging scans performed at baseline, at the end of cycle 1, and every 8 weeks thereafter. Patients evaluable for efficacy received at least one cycle of SAR, with a minimum of two infusions, and had undergone efficacy assessment at baseline and once or more after that.
In the dose-expansion cohort, MET amplification in tumor tissue was evaluated by a FISH assay. A tumor was considered MET amplified if ≥ 10% of cells had more than four gene copies of MET and the MET:CEP7 ratio was ≥ 2. Total c-MET protein expression was evaluated by immunohistochemistry, calculating the percentage of tumor cells with an immunohistochemistry score of 2+ or 3+ membrane staining. […] Immunohistochemistry was performed on fresh or archival tumor tissue.

[3] = biological target: c-Met kinase; set-up: method as in PMID 25504634; conditions: cited from earlier work
[4] = tested on: xenograft models of MET-amplified human gastric tumors; set-up: method as in PMID 25504634; conditions: cited from earlier work
[5] = tested on: patients with solid tumors; set-up: method as in ref 9 = [9]; 9 Angevin E Spitaleri G Hollebecque A De Pas T Soria JC Harnois M Mazuir F Assadourian S De Marinis F A first-in-human (FIH) phase I study of SAR125844, a novel selective MET kinase inhibitor, in pati; conditions: cited from earlier work
[6] = human, whole blood (dried blood spot), intravenous, 570 mg/m2, 570 mg/m^2, cycle 1 Day 1, n = 20, mean ± SD
[7] = human, whole blood (dried blood spot), intravenous, 570 mg/m2, 570 mg/m^2, cycle 1 Day 22, N = 17, mean ± SD
[8] = dose-expansion cohort (N = 19), 570 mg/m^2
[9] = two xenograft models, intravenous single-agent

Compound: O=C(NCCN1CCOCC1)Nc1nc2ccc(Sc3nnc4ccc(-c5ccc(F)cc5)nn34)cc2s1 [SAR125844]
- clearance ([1]; human, whole blood (dried blood spot), intravenous, 440 mg/m2, 440 mg/m^2, cycle 1 Day 22, N = 3, mean ± SD, read-out: CL (converted)): 503 mL/min
- Vd ([1]; human, whole blood (dried blood spot), intravenous, 440 mg/m2, 440 mg/m^2, cycle 1 Day 22, N = 3, mean ± SD, read-out: Vss): 490 ± 366 L
- half-life ([1]; human, whole blood (dried blood spot), intravenous, 440 mg/m2, 440 mg/m^2, cycle 1 Day 22, N = 3, mean ± SD, read-out: t1/2z (converted)): 27.5 ± 8.24 h
- Cmax ([1]; human, whole blood (dried blood spot), intravenous, 570 mg/m2, 570 mg/m^2, cycle 1 Day 1, N = 21, mean ± SD): 6570 ± 1680 ng/mL
- AUC [1, 6]: 36200 ± 11800 ng·h/mL
- AUC(0-t) [1, 6]: 36100 ± 11800 ng·h/mL
- clearance ([1]; human, whole blood (dried blood spot), intravenous, 570 mg/m2, 570 mg/m^2, cycle 1 Day 1, n = 20, mean ± SD, read-out: CL (converted)): 463 mL/min
- Vd ([1]; human, whole blood (dried blood spot), intravenous, 570 mg/m2, 570 mg/m^2, cycle 1 Day 1, n = 20, mean ± SD, read-out: Vss): 241 ± 55.3 L
- half-life ([1]; human, whole blood (dried blood spot), intravenous, 570 mg/m2, 570 mg/m^2, cycle 1 Day 1, n = 20, mean ± SD, read-out: t1/2z (converted)): 22.8 ± 9.47 h
- AUC [1, 7]: 35100 ± 15000 ng·h/mL
- Cmax [1, 7]: 6330 ± 1270 ng/mL
- AUC(0-t) [1, 7]: 35100 ± 14900 ng·h/mL
- clearance ([1]; human, whole blood (dried blood spot), intravenous, 570 mg/m2, 570 mg/m^2, cycle 1 Day 22, N = 17, mean ± SD, read-out: CL (converted)): 482 mL/min
- Vd ([1]; human, whole blood (dried blood spot), intravenous, 570 mg/m2, 570 mg/m^2, cycle 1 Day 22, N = 17, mean ± SD, read-out: Vss): 287 ± 105 L
- half-life ([1]; human, whole blood (dried blood spot), intravenous, 570 mg/m2, 570 mg/m^2, cycle 1 Day 22, N = 17, mean ± SD, read-out: t1/2z (converted)): 21.2 ± 4.94 h
- half-life ([1]; human, whole blood (dried blood spot), intravenous, 570 mg/m2, at the RD (570 mg/m^2), read-out: elimination half-life (converted)): ~21 h
- Vd ([1]; human, whole blood (dried blood spot), intravenous, 570 mg/m2, at the RD (570 mg/m^2), read-out: volume of distribution at steady state): ~253 L
- clearance ([1]; qualitative): medium
- effect of dose on total body clearance (CL) ([1]; statistical analysis, P = 0.25): no significant effect
- effect of dose on CL at steady state (CLs) ([1]; statistical analysis, P = 0.79): no significant effect
- patients with early disease progression leading to treatment discontinuation in cycle 1 ([2]; dose-escalation cohort): 11 patients
- objective responses ([2]; dose-escalation cohort (unselected population, N = 19)): No objective responses
- median time to tumor progression ([2]; dose-escalation cohort, 340 mg/m^2): 0.9 months
- median time to tumor progression ([2]; dose-escalation cohort, 440 mg/m^2): 1.7 months
- patients with stable disease ([2]; dose-escalation cohort, after 1 month of treatment): seven
- patients with stable disease ([2]; dose-escalation cohort, after 1 month of treatment, listed as SAR): 7 patients
- patients with progressive disease [2, 8]: 10 patients
- patients with stable disease [2, 8]: seven
- confirmed partial response / objective response rate ([2]; dose-expansion cohort, MET-amplified tumors, 570 mg/m^2, two of 19 patients): 10.5%
- patients with unconfirmed partial response ([2]; dose-expansion cohort, gastric cancer): one
- median time to tumor progression ([2]; dose-expansion cohort, median (range)): 0.92 (0.4–9) months
- median time to tumor progression ([2]; gastric cancer subpopulation of dose-expansion cohort, median (range)): 1.18 (0.4–9) months
- overall response rate (partial response rate) ([2]; gastric cancer subpopulation with MET amplification, two of 14 patients): 14.3%
- IC50 ([3]; read-out: half-maximal inhibitory concentration): 4.2 nM
- Ki ([3]; read-out: inhibitory constant): 2.8 nM
- toxicity profile ([4]; preclinical): acceptable toxicity profile
- c-Met kinase inhibition in xenograft tumors [4, 9]: c-Met kinase inhibition
- tumor regression [4, 9]: dose-dependent tumor regression
- recommended dose (RD) ([5]; first-in-human study, Western countries, intravenously): 570 mg/m^2 per week
- tolerability profile ([5]; first-in-human study, doses 50‒740 mg/m^2): acceptable tolerability profile
- antitumor activity ([5]; one patient with lung adenocarcinoma and MET amplification): Preliminary evidence of antitumor activity
